# Assay: recombinant UMI read abundance after kanamycin selection (control-corrected) (log10(CPM+1)); higher = more efficient recombination; extreme values may be limits of the assay; sequences stand for … in AGTGCAGAGAAAATCGGCCAGTTTTCTCTGCCTGCAGTCCGCATGCCGTGGGACCCCTTGGGTTCTAACCTGTTGCCTAGATTTATGCAGCGGACTGCCTTTCTCCCAAAGTGATAAACCGG…AGGTTGGTTTCACT; site = the 11-nt donor
# In short: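 In Escherichia coli, a pool of donor and donor-binding-loop pairs, each with a 12-nt UMI, was tested for the IS621 bridge recombinase. Plating was on IPTG (0.07 mM) plus kanamycin, or without selection, in two replicates. Recombinant UMIs were amplified by PCR across the donor–target junction and sequenced, and counts were reported as log10(CPM+1) after averaging and control-derived scaling.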
# 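Note: IS621 bridge recombinase in Escherichia coli cells against a fixed T5 target plasmid.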
row,Sequence,recombinant UMI read abundance (log10)
1,GTAGGTACATGGACCGGTTTTCCCGGTAATCCGTATTTGAC (site GTCGGTACTGT),1.16
2,GTAGGTACATGGACCGGTTTTCCCGGTAATCCGTATTTGAC (site GTGGGTACTGT),2.19
3,GTAGGTACATGGACCGGTTTTCCCGGTAATCCGTATTTGAC (site GTTGGTACTGT),1.96
4,GTAGGTACATGGACCGGTTTTCCCGGTAATCCGTATTTGAC (site TTAGGTACTGT),1.65
5,GTAGGTACATGGACCGGTTTTCCCGGTAATCCGTATTTGAG (site GTAGGTACTAT),0.994
6,GTAGGTACATGGACCGGTTTTCCCGGTAATCCGTATTTGAG (site GTAGGTACTCT),1.29
7,GTAGGTACATGGACCGGTTTTCCCGGTAATCCGTATTTGAG (site GTAGGTACTGT),1.42
8,GTAGGTACATGGACCGGTTTTCCCGGTAATCCGTATTTGAG (site GTAGGTACTTT),0.806
9,GTAGGTACATGGACCGGTTTTCCCGGTAATCCGTATTTGAT (site GTAGGTACTAT),1.87
10,GTAGGTACATGGACCGGTTTTCCCGGTAATCCGTATTTGAT (site GTAGGTACTCT),0.18
11,GTAGGTACATGGACCGGTTTTCCCGGTAATCCGTATTTGAT (site GTAGGTACTGT),0.596
12,GTAGGTACATGGACCGGTTTTCCCGGTAATCCGTATTTGAT (site GTAGGTACTTT),0.00769
13,GTAGTACCATGGACCGGTTTTCCCGGTAATCCGTATTTGAC (site CTAGTATCTGT),0
14,GTAGTACCATGGACCGGTTTTCCCGGTAATCCGTATTTGAC (site GTAGTACCTGT),0
15,GTAGTCACATGGACCGGTTTTCCCGGTAATCCGTATTTGCG (site GTAGTCACTCG),2.1
16,GTAGTCACATGGACCGGTTTTCCCGGTAATCCGTATTTGCG (site GTAGTCCCTCG),0.0197
17,GTAGTCACATGGACCGGTTTTCCCGGTAATCCGTATTTGCG (site GTAGTCGCTCG),1.67
18,GTAGTCACATGGACCGGTTTTCCCGGTAATCCGTATTTGCG (site GTAGTCTCTCG),2.62
19,GTAGTGGCATGGACCGGTTTTCCCGGTAATCCGTATTTGCG (site GTAGTAGCTCG),2.37
20,GTAGTGGCATGGACCGGTTTTCCCGGTAATCCGTATTTGCG (site GTAGTCGCTCG),1.25
21,GTAGTGGCATGGACCGGTTTTCCCGGTAATCCGTATTTGCG (site GTAGTGGCTCG),2.18
22,GTAGTGGCATGGACCGGTTTTCCCGGTAATCCGTATTTGCG (site GTAGTTGCTCG),2.06
23,GTATACCCATGGACCGGTTTTCCCGGTAATCCGTATTTGTC (site GTATACCCTGA),1.03
24,GTATAGTCATGGACCGGTTTTCCCGGTAATCCGTATTTGGT (site GTATAGTCTAC),2.67
25,GTATCGTCATGGACCGGTTTTCCCGGTAATCCGTATTTGTC (site GTATCGTCTGA),3.21

row,Sequence,recombinant UMI read abundance (log10)
1,GTATGACCATGGACCGGTTTTCCCGGTAATCCGTATTTGGC (site GTATGACCTGC),0
2,GTATGCACATGGACCGGTTTTCCCGGTAATCCGTATTTGAA (site GTATGCACTTA),0.217
3,GTATGCACATGGACCGGTTTTCCCGGTAATCCGTATTTGAA (site GTATGCACTTC),0.0775
4,GTATGCACATGGACCGGTTTTCCCGGTAATCCGTATTTGAA (site GTATGCACTTG),0.0145
5,GTATGCACATGGACCGGTTTTCCCGGTAATCCGTATTTGAA (site GTATGCACTTT),1.53
6,GTATGCGCATGGACCGGTTTTCCCGGTAATCCGTATTTGAA (site GTATGCGCTTT),1.66
7,GTATGCGCATGGACCGGTTTTCCCGGTAATCCGTATTTGTA (site GTATGCACTTA),1.8
8,GTATGCGCATGGACCGGTTTTCCCGGTAATCCGTATTTGTA (site GTATGCCCTTA),0.772
9,GTATGCGCATGGACCGGTTTTCCCGGTAATCCGTATTTGTA (site GTATGCGCTTA),2.35
10,GTATGCGCATGGACCGGTTTTCCCGGTAATCCGTATTTGTA (site GTATGCTCTTA),1.33
11,GTATGGACATGGACCGGTTTTCCCGGTAATCCGTATTTGTA (site GTATGAACTTA),2.39
12,GTATGGACATGGACCGGTTTTCCCGGTAATCCGTATTTGTA (site GTATGCACTTA),0.0152
13,GTATGGACATGGACCGGTTTTCCCGGTAATCCGTATTTGTA (site GTATGGACTTA),1.9
14,GTATGGACATGGACCGGTTTTCCCGGTAATCCGTATTTGTA (site GTATGTACTTA),0.44
15,GTCACAACATGGACCGGTTTTCCCGGTAATCCGTATTTGAC (site GTCACAACTGT),1.36
16,GTCACGACATGGACCGGTTTTCCCGGTAATCCGTATTTGAC (site GTCACGACTGT),1.96
17,GTCAGAACATGGACCGGTTTTCCCGGTAATCCGTATTTGAT (site GTCAGAACTAT),2.16
18,GTCAGACCATGGACCGGTTTTCCCGGTAATCCGTATTTGGT (site GTCAGACCTAC),0
19,GTCCAAGCATGGACCGGTTTTCCCGGTAATCCGTATTTGAG (site ATCCAAGCTCT),0.677
20,GTCCAAGCATGGACCGGTTTTCCCGGTAATCCGTATTTGAG (site CTCCAAGCTCT),0
21,GTCCAAGCATGGACCGGTTTTCCCGGTAATCCGTATTTGAG (site GTCCAAGCTCT),0.618
22,GTCCAAGCATGGACCGGTTTTCCCGGTAATCCGTATTTGAG (site TTCCAAGCTCT),0.088
23,GTCCACCCATGGACCGGTTTTCCCGGTAATCCGTATTTGTT (site GACCACCCTAA),0.0143
24,GTCCACCCATGGACCGGTTTTCCCGGTAATCCGTATTTGTT (site GCCCACCCTAA),0.0129
25,GTCCACCCATGGACCGGTTTTCCCGGTAATCCGTATTTGTT (site GGCCACCCTAA),0.0212

row,Sequence,recombinant UMI read abundance (log10)
1,GTCCACCCATGGACCGGTTTTCCCGGTAATCCGTATTTGTT (site GTCCACCCTAA),0.0175
2,GTCCATTCATGGACCGGTTTTCCCGGTAATCCGTATTTGCT (site GTCCATTCTAG),0.671
3,GTCCCCGCATGGACCGGTTTTCCCGGTAATCCGTATTTGAG (site GTCCCCGCTCT),0.468
4,GTCCCGTCATGGACCGGTTTTCCCGGTAATCCGTATTTGGT (site GTCCCGTCTAC),0.849
5,GTCGACCCATGGACCGGTTTTCCCGGTAATCCGTATTTGAG (site GTCGACCCTCT),0.0157
6,GTCGGTCCATGGACCGGTTTTCCCGGTAATCCGTATTTGTA (site GTCGGTCCTTA),0.0236
7,GTCGTTCCATGGACCGGTTTTCCCGGTAATCCGTATTTGGT (site GTAGTTCCTAC),0
8,GTCGTTCCATGGACCGGTTTTCCCGGTAATCCGTATTTGGT (site GTCGTTCCTAC),0.0042
9,GTCGTTCCATGGACCGGTTTTCCCGGTAATCCGTATTTGGT (site GTGGTTCCTAC),0.0048
10,GTCGTTCCATGGACCGGTTTTCCCGGTAATCCGTATTTGGT (site GTTGTTCCTAC),0.00325
11,GTCTGACCATGGACCGGTTTTCCCGGTAATCCGTATTTGAG (site CAGGCTGCTTA),0.0145
12,GTCTGCCCATGGACCGGTTTTCCCGGTAATCCGTATTTGAG (site GTCTGCCCTCT),0.0162
13,GTCTTACCATGGACCGGTTTTCCCGGTAATCCGTATTTGCC (site GTCTTACCTGG),0
14,GTCTTGACATGGACCGGTTTTCCCGGTAATCCGTATTTGTG (site GTCTTGACTCA),0.296
15,GTCTTGTCATGGACCGGTTTTCCCGGTAATCCGTATTTGTC (site GTCTTGTCTGA),1.66
16,GTGACGCCATGGACCGGTTTTCCCGGTAATCCGTATTTGAA (site GTGACGCCTTT),0.0255
17,GTGAGCGCATGGACCGGTTTTCCCGGTAATCCGTATTTGAG (site GTGAGCGCTCT),1.68
18,GTGCAGGCATGGACCGGTTTTCCCGGTAATCCGTATTTGGT (site GTGCAAGCTAC),1.77
19,GTGCAGGCATGGACCGGTTTTCCCGGTAATCCGTATTTGGT (site GTGCACGCTAC),0.00349
20,GTGCAGGCATGGACCGGTTTTCCCGGTAATCCGTATTTGGT (site GTGCAGGCTAC),0.659
21,GTGCAGGCATGGACCGGTTTTCCCGGTAATCCGTATTTGGT (site GTGCATGCTAC),0.279
22,GTGCAGGCATGGACCGGTTTTCCCGGTAATCCGTATTTGTG (site GTGAAGGCTCA),1.5
23,GTGCAGGCATGGACCGGTTTTCCCGGTAATCCGTATTTGTG (site GTGCAGGCTCA),1.17
24,GTGCAGGCATGGACCGGTTTTCCCGGTAATCCGTATTTGTG (site GTGGAGGCTCA),0.393
25,GTGCAGGCATGGACCGGTTTTCCCGGTAATCCGTATTTGTG (site GTGTAGGCTCA),0.475
